The results in this text go back to US10174037B2, “Dihydropyrazolopyrimidinone compounds as PDE2 inhibitors” (Merck Sharp & Dohme Corp., priority 2015, dated 2019).

One assay addresses Rhesus PDE2A3 (Macaca mulatta, UniProt B3VTJ2). The experiment in a line: PDE2 fluorescence polarization (IMAP FP) assay, rhesus PDE2A3. Format: biochemical, rhesus macaque. A general note: Polarisation of emitted light reports the rotation of a fluorescent probe.
In another assay the target is human PDE2A1 (Homo sapiens (Human), UniProt O00408). The experiment in a line: PDE selectivity IMAP FP assay, human PDE2A1. Format: biochemical. Conditions: Human PDE2. An outline of the steps:
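IMAP fluorescence polarization assay; PDE2 substrate 50 nM FAM-cAMP containing 1000 nM cGMP, enzyme diluted for 20% substrate conversion, in 10 mM Tris HCl pH 7.2, 10 mM MgCl2, 1 mM DTT. Reaction 60 min at room temperature, stopped with IMAP binding solution; polarization read after 1 h. Ki reported.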

The mark [1] stands for this setting: Lab B, read-out: Rhesus PDE2 Ki (nM) Lab B.
Setting [2] is: Lab B, read-out: Human PDE2 Ki (nM) Lab B.
The mark [3] stands for this setting: Lab A, read-out: Rhesus PDE2 Ki (nM) Lab A.
The mark [4] stands for this setting: Lab A, read-out: Human PDE2 Ki (nM) Lab A.

Read-outs that look alike come from different tables or passages of the source.

Chain of human PDE2A1 (O00408 other isoform, or with tags, fused parts or gaps): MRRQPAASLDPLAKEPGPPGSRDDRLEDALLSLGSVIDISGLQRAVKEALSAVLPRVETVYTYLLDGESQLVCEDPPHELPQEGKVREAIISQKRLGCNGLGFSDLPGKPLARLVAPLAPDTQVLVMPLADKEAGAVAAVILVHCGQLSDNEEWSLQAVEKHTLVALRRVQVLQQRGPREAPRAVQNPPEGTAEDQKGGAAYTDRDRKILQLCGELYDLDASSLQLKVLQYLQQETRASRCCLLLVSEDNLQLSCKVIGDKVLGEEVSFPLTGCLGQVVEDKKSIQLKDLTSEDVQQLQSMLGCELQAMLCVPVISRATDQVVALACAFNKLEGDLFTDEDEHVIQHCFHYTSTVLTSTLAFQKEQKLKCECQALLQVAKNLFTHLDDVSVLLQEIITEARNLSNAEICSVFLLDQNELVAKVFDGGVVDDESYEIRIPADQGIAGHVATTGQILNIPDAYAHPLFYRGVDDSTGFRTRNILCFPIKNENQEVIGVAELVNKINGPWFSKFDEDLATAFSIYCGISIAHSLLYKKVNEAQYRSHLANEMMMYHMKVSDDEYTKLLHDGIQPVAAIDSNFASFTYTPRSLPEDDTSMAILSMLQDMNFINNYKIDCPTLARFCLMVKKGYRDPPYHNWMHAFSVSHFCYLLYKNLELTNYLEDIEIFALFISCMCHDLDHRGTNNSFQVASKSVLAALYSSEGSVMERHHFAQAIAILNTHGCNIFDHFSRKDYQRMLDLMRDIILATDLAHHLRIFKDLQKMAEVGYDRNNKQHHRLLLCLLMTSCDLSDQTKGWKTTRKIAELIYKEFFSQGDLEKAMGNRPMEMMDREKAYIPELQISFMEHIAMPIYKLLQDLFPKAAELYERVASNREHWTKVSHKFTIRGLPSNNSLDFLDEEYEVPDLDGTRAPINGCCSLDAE
Chain of Rhesus PDE2A3 (B3VTJ2 1-941): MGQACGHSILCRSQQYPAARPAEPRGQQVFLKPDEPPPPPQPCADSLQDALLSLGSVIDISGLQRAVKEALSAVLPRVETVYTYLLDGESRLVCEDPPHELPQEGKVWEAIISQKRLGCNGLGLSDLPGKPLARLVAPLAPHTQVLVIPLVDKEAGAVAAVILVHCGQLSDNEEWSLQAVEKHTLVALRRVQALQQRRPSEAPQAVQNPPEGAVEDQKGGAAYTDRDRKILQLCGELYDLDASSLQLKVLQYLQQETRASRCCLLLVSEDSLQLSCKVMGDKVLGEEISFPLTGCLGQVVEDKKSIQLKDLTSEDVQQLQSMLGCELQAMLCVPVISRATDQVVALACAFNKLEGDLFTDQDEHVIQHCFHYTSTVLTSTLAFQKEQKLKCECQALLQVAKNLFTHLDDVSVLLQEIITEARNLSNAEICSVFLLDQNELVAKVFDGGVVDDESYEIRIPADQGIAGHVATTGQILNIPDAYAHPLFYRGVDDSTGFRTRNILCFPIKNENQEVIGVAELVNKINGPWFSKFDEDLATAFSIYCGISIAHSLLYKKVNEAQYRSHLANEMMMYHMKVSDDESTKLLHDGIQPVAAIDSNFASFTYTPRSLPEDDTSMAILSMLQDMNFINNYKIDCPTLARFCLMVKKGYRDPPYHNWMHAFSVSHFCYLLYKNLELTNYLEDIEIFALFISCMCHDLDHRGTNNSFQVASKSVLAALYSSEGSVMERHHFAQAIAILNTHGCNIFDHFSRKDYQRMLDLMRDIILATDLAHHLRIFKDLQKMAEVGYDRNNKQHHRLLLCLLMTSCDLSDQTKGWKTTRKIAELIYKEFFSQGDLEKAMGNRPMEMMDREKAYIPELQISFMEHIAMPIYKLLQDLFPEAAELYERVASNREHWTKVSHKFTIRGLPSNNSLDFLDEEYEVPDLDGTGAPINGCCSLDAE

For the compound `CC(C)C(c1ccc(C(F)(F)F)cc1)n1nc(CO)c2c(=O)[nH]c(N(C)C)nc21` (single isomer, unassigned) [Example 64, (R)- or (S)-6-Dimethylamino)-3-(hydroxymethyl)-1-(2-methyl-1-(4-(trifluoromethyl)phenyl)propyl)-1H-pyrazolo[3,4-d]pyrimidin-4(5H)-one], the figures for the Ki on Rhesus PDE2A3 (setting [1]) and on human PDE2A1 (setting [2]) were 0.39 nM and 0.29 nM, respectively.

Turning to `CC(c1ccc(C(C)(C)C)cc1)n1nc(CF)c2c(=O)[nH]c(N(C)C)nc21` (single isomer, unassigned) [Example 171, (S)- or (R)-1-(1-(4-tert-Butylphenyl)ethyl)-6-(dimethylamino)-3-(fluoromethyl)-1H-pyrazolo[3,4-d]pyrimidin-4(5H)-one], the Ki (in general, a dissociation constant, usually derived from enzyme kinetics or from competition with a known ligand) on Rhesus PDE2A3 (setting [1]) came out at 0.24 nM; at human PDE2A1 (setting [2]), 0.2 nM.

As for `CCC(c1ccc(OC(F)F)c(F)c1)n1nc(CO)c2c(=O)[nH]c(N(C)C)nc21` (single isomer, unassigned) [Example 126, (R)- or (S)-1-(1-(4-(Difluoromethoxy)-3-fluorophenyl)propyl)-6-(dimethylamino)-3-(hydroxymethyl)-1H-pyrazolo[3,4-d]pyrimidin-4(5H)-one], the Ki came out at 0.45 nM at Rhesus PDE2A3 (setting [1]) and 0.3 nM at human PDE2A1 (setting [2]).

For the compound `CCC(c1ccc(C(F)(F)F)c(F)c1)n1nc(CF)c2c(=O)[nH]c(N(C)C)nc21` (single isomer, unassigned) [Example 222, (R)- or (S)-6-(Dimethylamino)-1-(1-(3-fluoro-4-(trifluoromethyl)phenyl)propyl)-3-(fluoromethyl)-1H-pyrazolo[3,4-d]pyrimidin-4(5H)-one], the inhibition constant Ki is 0.063 nM on Rhesus PDE2A3 (setting [1]) and 0.044 nM on human PDE2A1 (setting [2]).

Consider `CC(c1ccc(C(F)(F)F)cc1)n1nc(CO)c2c(=O)[nH]c(O)nc21` (single isomer, unassigned) [Example 19, (S)- or (R)-6-Hydroxy-3-(hydroxymethyl)-1-{1-[4-(trifluoromethyl)phenyl]ethyl}-1,5-dihydro-4H-pyrazolo[3,4-d]pyrimidin-4-one], for which the Ki at Rhesus PDE2A3 (setting [3]) was 14 nM; at Rhesus PDE2A3 (setting [1]), 20 nM; at human PDE2A1 (setting [4]), 9 nM; on human PDE2A1 (setting [2]), 24 nM.

With `CC(C)C(c1ccc(C(F)(F)F)c(F)c1)n1nc(CF)c2c(=O)[nH]c(N(C)C)nc21` (single isomer, unassigned) [Example 221, (S)- or (R)-6-Dimethylamino)-1-(1-(3-fluoro-4-trifluoromethyl)phenyl)-2-methylpropyl)-3-(fluoromethyl)-1H-pyrazolo[3,4-d]pyrimidin-4(5H)-one], the Ki at Rhesus PDE2A3 (setting [1]) was determined as 0.067 nM; at human PDE2A1 (setting [2]), 0.046 nM.

In the case of `CC(c1ccc(S(F)(F)(F)(F)F)cc1)n1nc(CO)c2c(=O)[nH]c(O)nc21` (single isomer, unassigned) [Example 21, (S)- or (R)-6-Hydroxy-3-(hydroxymethyl)-1-{1-[4-(pentafluorosulfanyl)phenyl]ethyl}-1,5-dihydro-4H-pyrazolo[3,4-d]pyrimidin-4-one], the Ki at Rhesus PDE2A3 (setting [3]) is 20 nM; at Rhesus PDE2A3 (setting [1]) it was 27 nM; at human PDE2A1 (setting [4]), 13 nM; at human PDE2A1 (setting [2]), 28 nM.

For the compound `CN(C)c1nc2c(c(CF)nn2C(c2ccc(C(F)(F)F)cc2F)C2CC2)c(=O)[nH]1` (single isomer, unassigned) [Example 203, (S)- or (R)-1-(Cyclopropyl(2-fluoro-4-(trifluoromethyl)phenyl)methyl)-6-(dimethylamino)-3-(fluoromethyl)-1H-pyrazolo[3,4-d]pyrimidin-4(5H)-one], the Ki at Rhesus PDE2A3 (setting [1]) was 0.74 nM; on human PDE2A1 (setting [2]) it was 0.61 nM.

For the compound `CC(C)C(c1ccc(C(F)(F)F)cc1)n1nc(CC(F)(F)F)c2c(=O)[nH]c(O)nc21` (single isomer, unassigned) [Example 240, (R)- or (S)-6-Hxdroxy-1-(2-methyl-1-(4-(trifluoromethyl)phenyl)propyl)-3-(2,2,2-trifluoroethyl)-1H-pyrazolo[3,4-d]pyrimidin-4(5H)-one], the Ki on Rhesus PDE2A3 (setting [1]) came out at 11 nM; on human PDE2A1 (setting [2]), 8 nM.

`CC(C)C(c1ccc(C(F)(F)F)c(F)c1)n1nc(CF)c2c(=O)[nH]c(O)nc21` (single isomer, unassigned) [Example 55]: the Ki at Rhesus PDE2A3 (setting [1]) came to 1.3 nM; at human PDE2A1 (setting [2]), 0.96 nM.

As for `O=c1[nH]c(O)nc2c1c(CF)nn2C(c1ccc(OC(F)(F)F)c(F)c1)C1CC1` (single isomer, unassigned) [Example 44], the results for the Ki on Rhesus PDE2A3 (setting [1]) and at human PDE2A1 (setting [2]) were 9.8 nM and 10 nM, respectively.

In the case of `CC(c1ccc(C(F)(F)F)c(F)c1)n1nc(CO)c2c(=O)[nH]c(O)nc21` (single isomer, unassigned) [Example 1], the Ki came out at 13 nM at Rhesus PDE2A3 (setting [1]) and 11 nM on human PDE2A1 (setting [2]).

Regarding `O=c1[nH]c(O)nc2c1c(CF)nn2C1(c2ccc(C(F)(F)F)cc2)CCC1` [Example 46, 3-(Fluoromethyl)-6-hydroxy-1-(1-(4-(trifluoromethyl)phenyl)cyclobutyl)-1H-pyrazolo[3,4-d]pyrimidin-4(5H)-one], the Ki turned out to be 11 nM at Rhesus PDE2A3 (setting [1]) and 9.2 nM at human PDE2A1 (setting [2]).

As for `CCC(c1ccc(C(F)(F)F)cc1)n1nc(C(F)F)c2c(=O)[nH]c(O)nc21` (single isomer, unassigned) [Example 286, (S)- or (R)-3-(Difluoromethyl)-6-hydroxy-1-(1-(4-(trifluoromethyl)phenyl)propyl)-1H-pyrazolo[3,4-d]pyrimidin-4(5H)-one], the values for the Ki at Rhesus PDE2A3 (setting [1]) and at human PDE2A1 (setting [2]) were 1.5 nM and 2.2 nM, respectively.

On to `C[C@@H](c1ccc(C(F)(F)F)cc1)n1nc(CCO)c2c(=O)[nH]c(O)nc21` [Example 293, (S)-6-Hydroxy-3-(2-hydroxyethyl)-1-(1-(4-(trifluoromethyl)phenyl)ethyl)-1H-pyrazolo[3,4-d]pyrimidin-4(5H)-one], for which the Ki on Rhesus PDE2A3 (setting [1]) was found to be 12 nM; at human PDE2A1 (setting [2]) it was 10 nM.

In the case of `CC(c1ccc(OC(F)(F)F)c(F)c1)n1nc(CO)c2c(=O)[nH]c(N(C)C)nc21` (single isomer, unassigned) [Example 85, (S)- or (R)-6-(Dimethylamino)-1-(1-(3-fluoro-4-(trifluoromethoxy)phenyl)ethyl)-3-(hydroxymethyl)-1H-pyrazolo[3,4-d]pyrimidin-4(5H)-one], the Ki at Rhesus PDE2A3 (setting [1]) came to 0.3 nM; at human PDE2A1 (setting [2]), 0.24 nM.

Consider `CN(C)c1nc2c(c(CF)nn2C(c2ccc(OC(F)F)c(F)c2)C2CC2)c(=O)[nH]1` (single isomer, unassigned) [Example 189, (S)- or (R)-1-(Cyclopropyl(4-(difluoromethoxy)-3-fluorophenyl)methyl)-6-(dimethylamino)-3-(fluoromethyl)-1H-pyrazolo[3,4-d]pyrimidin-4(5H)-one], for which the Ki at Rhesus PDE2A3 (setting [1]) turned out to be 0.62 nM; on human PDE2A1 (setting [2]), 0.35 nM.

On to `CC(c1ccc(OC(F)(F)F)c(F)c1)n1nc(C(F)F)c2c(=O)[nH]c(O)nc21` (single isomer, unassigned) [Example 288, (S)- or (R)-3-(Difluoromethyl)-1-(1-(3-fluoro-4-(trifluoromethoxy)phenyl)ethyl)-6-hydroxy-1H-pyrazolo[3,4-d]pyrimidin-4(5H)-one], for which the Ki was 1.6 nM at Rhesus PDE2A3 (setting [1]) and 2.4 nM on human PDE2A1 (setting [2]).

On to `CC(C)c1ccc(C(C(C)C)n2nc(CO)c3c(=O)[nH]c(N(C)C)nc32)cc1` (single isomer, unassigned) [Example 79, (S)- or (R)-6-(Dimethylamino)-3-(hydroxymethyl)-1-(1-(4-isopropylphenyl)-2-methylpropyl)-1H-pyrazolo[3,4-d]pyrimidin-4(5H)-one], for which the figures for the inhibition constant (Ki) at Rhesus PDE2A3 (setting [1]) and at human PDE2A1 (setting [2]) were 0.054 nM and 0.044 nM, respectively.

For the compound `CCC(c1ccc(C(F)(F)F)cc1)n1nc(CO)c2c(=O)[nH]c(N(C)C)nc21` (single isomer, unassigned) [Example 73, (S)- or (R)-6-(Dimethylamino)-3-(hydroxymethyl)-1-(1-(4-(trifluoromethyl)phenyl)propyl)-1H-pyrazolo[3,4-d]pyrimidin-4(5H)-one], the Ki on Rhesus PDE2A3 (setting [1]) is 0.25 nM; on human PDE2A1 (setting [2]), 0.16 nM.

Consider `CC(C)C(c1ccc(OC(F)(F)F)cc1)n1nc(CF)c2c(=O)[nH]c(O)nc21` (single isomer, unassigned) [Example 42, (R)- or (S)-3-(Fluoromethyl)-6-hydroxy-1-(2-methyl-1-(4-(trifluoromethoxy)phenyl)propyl)-1H-pyrazolo[3,4-d]pyrimidin-4(5H)-one], for which the inhibitory constant (Ki) was 16 nM at Rhesus PDE2A3 (Rhesus PDE2 Ki (nM) Lab B, Lab B) and 14 nM at human PDE2A1 (setting [2]).

Take `CC(c1ccc(OC(F)(F)F)cc1)n1nc(CC(F)(F)F)c2c(=O)[nH]c(O)nc21` (racemic) [Example 230, 6-Hydroxy-3-(2,2,2-trifluoroethyl)-1-(1-(4-(trifluoromethoxy)phenyl)ethyl)-1H-pyrazolo[3,4-d]pyrimidin-4(5H)-one]: the values for the Ki at Rhesus PDE2A3 (setting [1]) and at human PDE2A1 (setting [2]) were 21 nM and 13 nM, respectively.

Take `CC(c1ccc(C(F)(F)F)cc1F)n1nc(CO)c2c(=O)[nH]c(N(C)C)nc21` (single isomer, unassigned) [Example 81, (S)- or (R)-6-(Dimethylamino)-1-(1-(2-fluoro-4-(trifluorornethyl)phenyl)ethyl)-3-(hyrdroxymethyl)-1H-pyrazolo[3,4-d]pyrimidin-4(5H)-one]: the results for the Ki at Rhesus PDE2A3 (setting [1]) and on human PDE2A1 (setting [2]) were 0.25 nM and 0.29 nM, respectively.

As for `CN(C)c1nc2c(c(CO)nn2C(c2ccc(C(F)(F)F)cc2F)C2CC2)c(=O)[nH]1` (single isomer, unassigned) [Example 135, (S)- or (R)-1-(Cyclopropyl(2-fluoro-4-(trifluoromethyl)phenyl)methyl)-6-(dimethylamino)-3-(hydroxymethyl)-1H-pyrazolo[3,4-d]pyrimidin-4(5H)-one], the Ki is 0.72 nM on Rhesus PDE2A3 (setting [1]) and 0.6 nM at human PDE2A1 (setting [2]).
